Experimental data taken from US20240085429A1, “ALTERING PROTEIN FUNCTION BY PHARMACOLOGICAL TARGETING OF MEMBRANE DOMAINS” (University of Virginia Patent Foundation, priority 2021, published 2024).
Structures can show the parent of a compound that is named as a salt.

What was measured:
GPMVs from HeLa cells = experiment: Di4 fluorescence lifetime imaging (lipid packing in GPMVs); parameters: species or system human; details: TLCK 1 μM, C6-ceramide 1 μM, MβCD 5 mM; for phase state of GPMVs in FLIM images: room temperature; for average Di4 lifetime: single-phase GPMVs (MβCD: average across all domains), control 2.53±0.06 ns, mean±SD
Excerpt: It was also of interest how TLCK and C6-ceramide impact other properties of the membrane compared to treatments such as cholesterol depletion that are commonly used to disrupt rafts in cells (Zidovetzki & Levitan, 2007). To test this, we examined their effects on membrane lipid packing and fluidity using a fluorescent reporter of membrane packing, Di-4-[…] (Di4) (Jin et al., 2006; Owen et al., 2006; Sezgin et al., 2014; Levental et al., 2020b; Lorent et al., 2020). As a control, we subjected GPMVs to cholesterol depletion using 5 mM MβCD. The photophysical characteristics of Di4, including its lifetime, are dependent on lipid packing in membranes. In particular, a lower Di4 lifetime is indicative of loose packing and a more fluid membrane environment whereas higher Di4 lifetimes point to a less fluid membranes and tighter lipid packing. […] The phase separated vesicles were characterized by two populations of lifetimes, corresponding to the Lo phase (higher lifetime) and Ld phase (lower lifetime) (FIGS. 11A-11F).
GPMVs were prepared as previously described by Sezgin, E, et al., Nat Protoc 2012, 7 (6), 1042-51. In brief, HeLa cells were washed twice with GPMV buffer (2 mM CaCl2)/10 mM HEPES/0.15 M NaCl, pH 7.4), then washed twice with GPMV active buffer (GPMV buffer containing 25 mM formaldehyde and 2 mM DTT). Cells were then incubated with GPMV active buffer for 1-2 hours at 37° C. with shaking at 90-95 RPM. The GPMV-containing supernatant was decanted into a centrifuge tube and GPMVs were allowed to settle for 1 h. Aliquots of GPMVs (100 μL) were pipetted from the bottom of the Eppendorf tube into separate tubes and treated with DMSO (0.1%), 1 μM TLCK, 1 μM C6-ceramide or 5 mM MbCD. After 5 min, Di 4 […] (Di4) (Thermo Scientific) was added to a final concentration of […] from a stock solution of 1 mg/mL Di4 in ethanol. The GPMVs were then sandwiched between two coverslips coated with 1 mg/mL bovine serum albumin (BSA) solution and allowed to incubate for an additional 20 min prior to lifetime measurements.
Di4 lifetime images were performed on a Leica TCS SP8 system comprising a Leica DMi8 inverted scanning confocal microscope with time-correlated single photon counting (TC-SPC) system and an 80 MHz-pulsed supercontinuum white light laser which allows continuously tunable excitation in the visible range coupled with filter-free detection. Samples were imaged using an HC PL APO CS2 63X/1.20 water objective. Di4 was excited at 488 nm and the emission was collected in the 550-800 nm range. The photon count rate was kept under 0.5 photons per laser pulse by adjusting the laser power, and sufficient frames were cumulatively acquired to obtain at least 100 photons per pixel. The fluorescence decay curves were fit with a bi-exponential re-convolution function adjusted to the instrument response function, and the average intensity-weighted lifetime was calculated for individual vesicles or area of interest and represented in the FLIM images as Di4 lifetime. Data are reported from two independent experiments. Statistical analyses were performed using GraphPad Prism 9.3.0.

[1] = tested on: GPMVs derived from HeLa cells; experiment: Ten-point dose response of re-ordered hits in GPMVs; parameters: species or system human; details: for percentage of phase separated vesicles as a function of increasing concentration: freshly made reordered stocks
Protocol: Compounds identified in the initial screens as potential hits were re-ordered and their identity verified by mass spectrometry by the Vanderbilt Chemical Synthesis Core. Ten-point dose response curves using ˜1:2 serial dilutions were generated producing a range of final concentration of 30 nM to […] and backfilled to yield equivalent concentrations of DMSO. Data were collected in duplicate for each concentration. Two independent dose response experiments were performed.

Row | Compound | phase state of GPMVs in FLIM images (GPMVs from HeLa cells) | average Di4 lifetime (GPMVs from HeLa cells) | effect on phase preference of NBD-DSPE (Pordered) versus concentration [1] | percentage of phase separated vesicles as a function of increasing concentration [1]
1 | CCCCCCCCCCCCC/C=C/[C@@H](O)[C@H](CO)NC(=O)CCCCC [C6 Ceramide (d18:1/6:0)] | contained a single membrane phase | 2.53±0.11 ns | dose-dependent | opposite effect
2 | Cc1ccc(S(=O)(=O)N[C@@H](CCCCN)C(=O)CCl)cc1 [TLCK hydrochloride, Nα-Tosyl-Lys Chloromethyl Ketone] | mixture of phase separated | 2.43±0.06 ns | dose-dependent | systematically increased
